# According to patent US20100137305A1, “AMINOPYRIMIDINES USEFUL AS KINASE INHIBITORS” (VERTEX PHARMACEUTICALS INCORPORATED, priority 2008, published 2010):
# Where two headings read alike, the source gives them in different places.
# How the values were obtained:
# [1] = system: Colo205 cells; assay: Analysis of Cell Proliferation, 3H thymidine incorporation; assay type: cell-based; details: Homo sapiens
# Method in brief: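 Serially diluted compound added in duplicate to Colo205 cells, 0.1% DMSO diluent control, incubated 72 or 96 hrs at 37C, 5% CO2. 0.5 μCi 3H thymidine added 3 h before end; incorporated radioactivity counted by beta-counter and dose-response curves fitted.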
# [2] = biological target: N-terminally truncated (Δ 27) Abl kinase (Homo sapiens, UniProt P00519); assay: Abl Kinase Activity Inhibition Assay, coupled enzyme system; assay type: biochemical; details: 110 μM ATP, 30° C.
# Protocol: Compounds were screened for their ability to inhibit N-terminally truncated (Δ 27) Abl kinase activity using a standard coupled enzyme system (Fox et al., Protein Sci., 7, pp. 2249 (1998)). Reactions were carried out in a solution containing 100 mM HEPES (pH 7.5), 10 mM MgCl2, 25 mM NaCl, 300 μM NADH, 1 mM DTT and 3% DMSO. Final substrate concentrations in the assay were 110 μM ATP (Sigma Chemicals, St Louis, Mo.) and 70 μM peptide (EAIYAAPFAKKK, American Peptide, Sunnyvale, Calif.). Reactions were carried out at 30° C. and 21 nM Abl kinase. Final concentrations of the components of the coupled enzyme system were 2.5 mM phosphoenolpyruvate, 200 μM NADH, 60 μg/ml pyruvate kinase and 20 μg/ml lactate dehydrogenase.
# An assay stock buffer solution was prepared containing all of the reagents listed above with the exception of ATP and the test compound of interest. The assay stock buffer solution (60 μl) was incubated in a 96 well plate with 2 μl of the test compound of interest at final concentrations typically spanning 0.002 μM to 30 μM at 30° C. for 10 min. Typically, a 12 point titration was prepared by serial dilutions (from 1 mM compound stocks) with DMSO of the test compounds in daughter plates. The reaction was initiated by the addition of 5 μl of ATP (final concentration 110 μM). Rates of reaction were obtained using a Molecular Devices Spectramax plate reader (Sunnyvale, Calif.) over 10 min at 30° C. The Ki values were determined from the residual rate data as a function of inhibitor concentration using nonlinear regression (Prism 3.0, Graphpad Software, San Diego, Calif.).
# [3] = biological target: T1, Aurora-2 (Aurora A) (Homo sapiens, UniProt O14965); assay: Aurora-2 (Aurora A) Inhibition Assay, coupled enzyme assay; assay type: biochemical; details: 400 μM ATP, 30° C.; read-out: Aurora A kinase activity Ki
# T1 sequence (O14965 1-403): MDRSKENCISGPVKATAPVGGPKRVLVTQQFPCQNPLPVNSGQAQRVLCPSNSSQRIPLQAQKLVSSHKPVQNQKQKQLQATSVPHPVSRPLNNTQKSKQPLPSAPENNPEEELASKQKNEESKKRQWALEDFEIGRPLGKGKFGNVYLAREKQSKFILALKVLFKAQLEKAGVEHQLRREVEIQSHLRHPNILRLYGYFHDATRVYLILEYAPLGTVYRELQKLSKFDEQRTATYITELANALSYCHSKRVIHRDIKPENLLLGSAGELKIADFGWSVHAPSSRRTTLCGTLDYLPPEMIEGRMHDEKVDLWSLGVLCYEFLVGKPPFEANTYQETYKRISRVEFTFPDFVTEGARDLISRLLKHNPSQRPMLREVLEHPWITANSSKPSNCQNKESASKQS
# Method in brief: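 Coupled pyruvate kinase/LDH assay (NADH read-out) with 40 nM Aurora-2, 400 μM ATP and 570 μM Kemptide in 100 mM Hepes pH 7.5, 10 mM MgCl2, at 30 °C. Compound preincubated 10 min (serial dilutions typically from 7.5 μM final); initial rates over 10 min, IC50 and Ki by non-linear regression.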
# [4] = biological target: Aurora-1 (Aurora B) (Homo sapiens, UniProt Q96GD4); assay: Aurora-1 (Aurora B) Inhibition Assay (radiometric); assay type: biochemical; details: 800 μM ATP; read-out: Aurora B kinase activity Ki
# Protocol: An assay buffer solution was prepared which consisted of 25 mM HEPES (pH 7.5), 10 mM MgCl2, 0.1% BSA and 10% glycerol. A 22 nM Aurora-B solution, also containing 1.7 mM DTT and 1.5 mM Kemptide (LRRASLG), was prepared in assay buffer. To 22 μL of the Aurora-B solution, in a 96-well plate, was added 2 μl of a compound stock solution in DMSO and the mixture allowed to equilibrate for 10 minutes at 25° C. The enzyme reaction was initiated by the addition of 16 μl stock [γ-^33P]-ATP Pi-ATP solution (˜20 nCi/μL) prepared in assay buffer, to a final assay concentration of 800 μM. The reaction was stopped after 3 hours by the addition of 16 μL 500 mM phosphoric acid and the levels of ^33P incorporation into the peptide substrate were determined by the following method.
# A phosphocellulose 96-well plate (Millipore, Cat no. MAPHNOB50) was pre-treated with 100 μL of a 100 mM phosphoric acid prior to the addition of the enzyme reaction mixture (40 μL). The solution was left to soak on to the phosphocellulose membrane for 30 minutes and the plate subsequently washed four times with 200 μL of a 100 mM phosphoric acid. To each well of the dry plate was added 30 μL of Optiphase ‘SuperMix’ liquid scintillation cocktail (Perkin Elmer) prior to scintillation counting (1450 Microbeta Liquid Scintillation Counter, Wallac). Levels of non-enzyme catalyzed background radioactivity were determined by adding 16 μL of the 500 mM phosphoric acid to control wells, containing all assay components (which acts to denature the enzyme), prior to the addition of the [γ-^33P]-ATP solution. Levels of enzyme catalyzed ^33P incorporation were calculated by subtracting mean background counts from those measured at each inhibitor concentration. For each Ki determination 8 data points, typically covering the concentration range 0-10 μM compound, were obtained in duplicate (DMSO stocks were prepared from an initial compound stock of 10 mM with subsequent 1:2.5 serial dilutions). Ki values were calculated from initial rate data by non-linear regression using the Prism software package (Prism 3.0, Graphpad Software, San Diego, Calif.).
# [5] = biological target: T2, T315I mutant of human Abl (Homo sapiens, UniProt P00519, T315I); assay: Mutant Abl Kinase (T315I) Activity Inhibition Assay (Upstate, radiometric); assay type: biochemical
# T2 construct: purchased Upstate Cell Signaling Solutions (Dundee, UK)
# [6] = COLO 205, 72 h, 72 hours, read-out: IC50 cell proliferation after 72 hours
# [7] = COLO 205, 96 h, 96 hours, read-out: IC50 cell proliferation after 96 hours
# Sequence of Aurora-1 (Aurora B) (Q96GD4 whole entry): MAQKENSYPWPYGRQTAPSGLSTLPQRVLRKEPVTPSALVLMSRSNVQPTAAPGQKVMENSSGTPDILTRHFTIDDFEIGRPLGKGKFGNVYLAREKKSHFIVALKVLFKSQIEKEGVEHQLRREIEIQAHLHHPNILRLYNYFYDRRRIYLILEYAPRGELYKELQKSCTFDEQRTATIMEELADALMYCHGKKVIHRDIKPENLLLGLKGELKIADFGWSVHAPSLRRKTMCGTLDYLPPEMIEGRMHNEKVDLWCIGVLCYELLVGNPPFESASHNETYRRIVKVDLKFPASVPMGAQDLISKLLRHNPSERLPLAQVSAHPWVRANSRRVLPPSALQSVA
SMILES,"IC50 [1, 6] [nM]",Ki [2] [nM],Ki [3] [nM],Ki [4] [nM],Ki [5] [nM],"IC50 [1, 7] [nM]"
Cc1cc(Nc2cc(N3CCC(N4CCC(F)C4)CC3)nc(Sc3ccc(NC(=O)CC(F)(F)F)cc3)n2)[nH]n1 (centres unmarked) [Compound I-63],≤ 25,25 to 100,≤ 10,≤ 10,< 200,
Cc1cc(Nc2cc(N3CCC(F)(F)C3)nc(Sc3ccc(NC(=O)CC(F)(F)F)cc3)n2)[nH]n1 [Compound I-27],25 to 125,25 to 100,≤ 10,10 to 50,< 200,50 to 200
Cc1cc(Nc2cc(N3CCC(N4CCCC4)CC3)nc(Sc3ccc(NC(=O)C4(C(F)(F)F)CC4)cc3)n2)[nH]n1 [Compound I-65],≤ 25,25 to 100,≤ 10,10 to 50,< 200,
Cc1cnc(Nc2cc(N3CC[C@@H](N(C)C)C3)nc(Sc3ccc(NC(=O)C4CC4)cc3)n2)s1 [Compound I-29],,< 25,≤ 10,10 to 50,< 200,50 to 200
"Cc1cc(Nc2cc(N3CC4CCCN(C)C4C3)nc(Sc3ccc(NC(=O)CC(F)(F)F)cc3)n2)[nH]n1 (centres unmarked) [Compound I-69, 3,3,3-trifluoro-N-(4-(4-(3-methyl-1H-pyrazol-5-ylamino)-6-(1-methyltetrahydro-1H-pyrrolo[3,4-b]pyridin-6(2H,7H,7aH)-yl)pyrimidin-2-ylthio)phenyl)propanamide]",≤ 25,25 to 100,≤ 10,≤ 10,< 200,
Cc1cc(Nc2cc(N3CCC(N4CCCC4)CC3)nc(Sc3ccc(NC(=O)CC(F)(F)F)cc3)n2)[nH]n1 [Compound I-68],≤ 25,< 25,≤ 10,10 to 50,< 200,
CCC(=O)Nc1ccc(Sc2nc(Nc3cc(C)n[nH]3)cc(N3CCC(C(C)(C)O)CC3)n2)cc1 [Compound I-42],,25 to 100,≤ 10,10 to 50,200 to 500,≤ 50

# Second part, the compound after the results:
"IC50 [1, 6] [nM]",Ki [2] [nM],Ki [3] [nM],Ki [4] [nM],Ki [5] [nM],"IC50 [1, 7] [nM]",SMILES
,< 25,≤ 10,10 to 50,200 to 500,50 to 200,CCC(=O)Nc1ccc(Sc2nc(Nc3cc(C)n[nH]3)cc(N3CCC(F)C3)n2)cc1 (centres unmarked) [Compound I-18]
≤ 25,25 to 100,≤ 10,≤ 10,< 200,,Cc1cc(Nc2cc(N3CCC(F)C3)nc(Sc3ccc(NC(=O)CC(F)(F)F)cc3)n2)[nH]n1 (centres unmarked) [Compound I-71]
25 to 125,25 to 100,≤ 10,10 to 50,< 200,,Cc1cc(Nc2cc(N3CCC(F)C3)nc(Sc3ccc(NC(=O)CCC(F)(F)F)cc3)n2)[nH]n1 (centres unmarked) [Compound I-81]
25 to 125,25 to 100,≤ 10,≤ 10,< 200,,Cc1cc(Nc2cc(N3CCC(O)CC3)nc(Sc3ccc(NC(=O)CC(F)(F)F)cc3)n2)[nH]n1 [Compound I-80]
